Tests used:
[1] = system: mito-QC MEFs; test: Mitophagy in mito-QC MEFs; assay type: cell-based, mouse; settings: 24 h treatment
Text: Mitochondrial dysfunction is one of the pathophysiological hallmarks of PD[73] and can be rescued by mitophagy, a quality control mechanism whereby damaged or unnecessary mitochondria are delivered to lysosomes for degradation through membrane trafficking.[8] It has been shown that increasing mitophagy with inducer agents has the potential as a PD therapy.[74] Previous studies have shown that the LRRK2 kinase activity impairs basal mitophagy and that LRRK2 knockout or pharmacological inhibition of LRRK2 with kinase inhibitors was able to rescue the mitophagy level.[8]
Data are represented as mean ± SEM from three to five independent experiments.
Immortalized mito-QC MEFs[8],[93] were maintained in DMEM (Gibco, 11960–044) supplemented with 10% FBS, 2 mM L-glutamine (Gibco, 2503-081), 1% Na-pyruvate (Gibco, 11360-070), 1% nonessential amino acids (Gibco, 11140–035), and 1% antibiotics (penicillin/streptomycin, 100 U/mL penicillin and 100 μg/mL streptomycin; Gibco) at 37 °C under a humidified 5% CO2 atmosphere. […] Quantification of red-only dots was semiautomatized using the mito-QC counter plugin on FIJI, as previously described,[8],[94] using the following parameters: radius for smoothing images = 2, ratio threshold = 1.5, and red channel threshold = mean + 1 SD. […]

[2] = molecular target: T1, R1441C LRRK2 (Mus musculus, UniProt Q5S006, R1441C); test: LRRK2 degradation in R1441C LRRK2 MEFs; assay type: cell-based; settings: 4 h
T1 construct: endogenous in cells; host or cells: R1441C LRRK2 MEFs

[3] = system: pRab10; test: Rab10 dephosphorylation in R1441C LRRK2 MEFs; assay type: cell-based; settings: Mus musculus, 4 h, read-out: EC50s (pRab10)
Text: Primary MEFs were generated as described in a previous study.[80] Briefly, the uterine horn was collected from adult female mice at day E12.5 and transferred to a 10 cm tissue culture dish containing cold PBS. Two forceps were used to tear the yolk sacs to isolate each embryo. Forceps were cleaned thoroughly with 70% ethanol between each embryo isolation. The embryos were culled, and a tissue piece was collected in a polymerase chain reaction (PCR) tube for genotyping. The red tissue of the embryo was removed, and the remainder was minced with a scalpel blade and incubated with a 7.5 mL trypsin–ethylenediaminetetraacetic acid (EDTA) solution for 10 min in a 37 °C, 5% CO2 tissue culture incubator. The dish was removed from the incubator and checked under a light microscope for single cells. Complete media (7.5 mL) was added to the trypsinized cells, and the cell suspension was transferred to a 15 mL Falcon tube and centrifuged at 1200 rpm for 5 min at room temperature. […]
Culturing and passaging of adherent cell lines were carried out using an aseptic technique in CL1 or CL2 (for PBMC isolation) biological safety cabinets. […] The cell pellet was discarded, and the supernatant was collected for analysis by quantitative immunoblotting. […] Protein concentrations of cell lysates were determined using the Bradford assay. […]

T1 sequence (Q5S006 whole entry R1441C): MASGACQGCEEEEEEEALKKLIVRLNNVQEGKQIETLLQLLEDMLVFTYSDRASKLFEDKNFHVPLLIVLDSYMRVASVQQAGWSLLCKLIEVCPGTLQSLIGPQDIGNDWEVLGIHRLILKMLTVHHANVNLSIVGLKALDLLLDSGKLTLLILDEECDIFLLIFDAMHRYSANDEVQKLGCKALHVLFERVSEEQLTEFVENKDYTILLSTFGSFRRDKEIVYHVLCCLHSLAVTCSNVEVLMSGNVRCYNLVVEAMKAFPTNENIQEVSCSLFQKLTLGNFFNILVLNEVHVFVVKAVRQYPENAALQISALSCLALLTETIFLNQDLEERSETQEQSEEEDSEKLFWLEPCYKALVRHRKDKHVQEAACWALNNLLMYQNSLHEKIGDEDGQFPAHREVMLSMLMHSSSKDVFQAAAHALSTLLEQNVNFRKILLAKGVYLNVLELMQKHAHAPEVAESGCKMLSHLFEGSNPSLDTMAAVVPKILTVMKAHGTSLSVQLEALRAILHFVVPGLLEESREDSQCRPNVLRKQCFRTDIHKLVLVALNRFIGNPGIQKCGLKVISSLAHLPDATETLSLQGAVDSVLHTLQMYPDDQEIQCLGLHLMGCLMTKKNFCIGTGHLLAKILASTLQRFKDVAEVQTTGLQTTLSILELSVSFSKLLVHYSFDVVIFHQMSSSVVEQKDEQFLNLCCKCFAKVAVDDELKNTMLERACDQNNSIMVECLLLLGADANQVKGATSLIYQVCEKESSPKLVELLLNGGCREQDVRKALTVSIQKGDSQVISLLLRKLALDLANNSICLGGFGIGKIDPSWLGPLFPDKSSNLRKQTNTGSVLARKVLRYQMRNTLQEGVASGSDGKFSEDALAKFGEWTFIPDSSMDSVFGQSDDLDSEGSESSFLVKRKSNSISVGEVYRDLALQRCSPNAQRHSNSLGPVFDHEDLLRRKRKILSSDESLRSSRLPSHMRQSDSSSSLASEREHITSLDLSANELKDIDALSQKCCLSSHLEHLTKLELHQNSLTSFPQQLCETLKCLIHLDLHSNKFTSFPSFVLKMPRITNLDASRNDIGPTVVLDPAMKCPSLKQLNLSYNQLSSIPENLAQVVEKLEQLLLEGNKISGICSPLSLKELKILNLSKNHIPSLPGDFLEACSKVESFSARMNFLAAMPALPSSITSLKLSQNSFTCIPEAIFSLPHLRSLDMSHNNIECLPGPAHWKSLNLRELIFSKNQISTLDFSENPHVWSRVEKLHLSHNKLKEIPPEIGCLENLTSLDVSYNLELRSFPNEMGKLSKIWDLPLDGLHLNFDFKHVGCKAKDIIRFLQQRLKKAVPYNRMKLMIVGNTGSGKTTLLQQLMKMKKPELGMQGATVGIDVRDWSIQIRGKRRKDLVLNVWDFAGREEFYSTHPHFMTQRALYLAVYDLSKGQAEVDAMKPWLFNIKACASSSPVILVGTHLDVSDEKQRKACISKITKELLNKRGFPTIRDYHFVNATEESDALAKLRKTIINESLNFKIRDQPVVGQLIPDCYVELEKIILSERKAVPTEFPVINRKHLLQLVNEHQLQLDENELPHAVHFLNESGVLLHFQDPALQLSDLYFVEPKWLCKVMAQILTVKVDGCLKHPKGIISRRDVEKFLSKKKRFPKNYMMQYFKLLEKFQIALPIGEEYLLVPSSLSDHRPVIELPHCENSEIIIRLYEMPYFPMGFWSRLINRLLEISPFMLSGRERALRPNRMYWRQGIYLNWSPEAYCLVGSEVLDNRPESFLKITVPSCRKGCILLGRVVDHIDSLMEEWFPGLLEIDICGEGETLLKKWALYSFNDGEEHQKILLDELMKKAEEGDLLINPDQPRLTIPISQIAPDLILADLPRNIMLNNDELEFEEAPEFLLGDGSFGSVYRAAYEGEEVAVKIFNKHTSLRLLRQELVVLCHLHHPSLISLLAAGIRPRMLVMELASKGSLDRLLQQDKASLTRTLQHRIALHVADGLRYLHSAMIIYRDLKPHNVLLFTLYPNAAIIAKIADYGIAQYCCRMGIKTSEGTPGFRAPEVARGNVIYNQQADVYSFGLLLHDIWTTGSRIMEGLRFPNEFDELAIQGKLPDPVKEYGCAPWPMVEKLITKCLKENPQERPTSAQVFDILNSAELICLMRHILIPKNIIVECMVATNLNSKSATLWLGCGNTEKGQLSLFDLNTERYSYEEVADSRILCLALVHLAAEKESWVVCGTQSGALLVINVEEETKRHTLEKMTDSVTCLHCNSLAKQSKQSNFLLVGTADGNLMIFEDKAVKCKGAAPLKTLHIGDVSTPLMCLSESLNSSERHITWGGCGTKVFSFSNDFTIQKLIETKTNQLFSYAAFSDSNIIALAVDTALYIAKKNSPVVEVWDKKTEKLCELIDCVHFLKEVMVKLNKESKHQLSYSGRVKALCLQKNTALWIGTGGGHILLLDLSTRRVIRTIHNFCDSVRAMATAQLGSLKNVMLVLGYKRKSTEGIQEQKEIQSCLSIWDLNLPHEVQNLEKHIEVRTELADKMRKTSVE

SMILES | mitophagy level (in words) [1] | DC50s (LRRK2) [2] | EC50 [3] | Dmax (LRRK2) [2]
CNc1nc(Nc2ccc(C(=O)N3CCN(C[C@H]4CC[C@H](CSC(C)(C)[C@H](NC(=O)C5(F)CC5)C(=O)N5C[C@H](O)CC5C(=O)NCc5ccc(-c6scnc6C)cc5)CC4)CC3)cc2OC)ncc1Cl (stereo partly drawn) [XL01126, (2S,4R)-1-((R)-3-((((1R,4R)-4-((4-(4-((5-Chloro-4-(methylamino)pyrimidin-2-yl)amino)-3-methoxybenzoyl)piperazin-1-yl)methyl)cyclohexyl)methyl)thio)-2-(1-fluorocyclopropane-1-carboxamido)-3-methylbutanoyl)-4-hydroxy-N-(4-(4-methylthiazol-5-yl)benzyl)pyrrolidine-2-carboxamide] | induced the mitophagy level dose-dependently | 15 nM (4 h) | 30 nM | 
CNc1nc(Nc2ccc(C(=O)N3CCN(C[C@H]4CC[C@H](CSC(C)(C)[C@H](NC(=O)C5(F)CC5)C(=O)N5C[C@@H](O)C[C@H]5C(=O)NCc5ccc(-c6scnc6C)cc5)CC4)CC3)cc2OC)ncc1Cl [cis-XL01126, (2S,4S)-1-((R)-3-((((1R,4R)-4-((4-(4-((5-Chloro-4-(methylamino)pyrimidin-2-yl)amino)-3-methoxybenzoyl)piperazin-1-yl)methyl)cyclohexyl)methyl)thio)-2-(1-fluorocyclopropane-1-carboxamido)-3-methylbutanoyl)-4-hydroxy-N-(4-(4-methylthiazol-5-yl)benzyl)pyrrolidine-2-carboxamide] | induced the mitophagy level dose-dependently | NDO | 158 nM | NDO

Source: publication PMC9501899 (Journal of the American Chemical Society, 2022)
